Results taken from patent publication US6080761A, “Inhibition of smooth muscle cell migration by (R)-amlodipine” (Pfizer Inc., priority 1993, dated 2000).
Where two headings read alike, the source gives them in different places.

Tested on: rabbit aortic smooth muscle cells
Assay: aortic explant assay of smooth muscle cell migration induced by platelet-derived growth factor
Assay type: cell-based
Settings: Oryctolagus cuniculus, read-out: % inhibition of SMC migration from explants
Method: In this method uniform pieces of intimal/medial tissue from rabbit aorta were cultured in individual wells of a well plate. Migration was induced by addition of platelet-derived growth factor to the culture. Following a lag phase of several days the smooth muscle cells migrated from the explanted tissue and proliferated.
The distance covered by the outgrowing smooth muscle cells was measured.
This assay was carried out with varying concentrations of test compound added to the culture. The compounds thus tested were the maleate salts of the racemic mixture of R(+) and S(-) amlodipine, the maleate salts of R(+) and S(-) amlodipine separately and the known calcium channel-blocking agents nitrendipine and verapamil.
The results obtained are shown in Table 1, in which the percentage inhibition of smooth muscle cell migration for concentrations of test compound of 1 nanomole and 0.1 nanomole are recorded.

[1] = 0.1 nM test compound, rabbit aortic explants, PDGF-induced migration
[2] = 1 nM test compound, rabbit aortic explants, PDGF-induced migration

Row | Structure (SMILES) | inhibition at 0.0001 µM [1] [%] | inhibition at 0.001 µM [2] [%] | inhibition at 0.0001 µM [%] | inhibition at 0.001 µM [%]
1 | CCOC(=O)C1=C(COCCN)NC(C)=C(C(=O)OC)C1c1ccccc1Cl (racemic) [Amlodipine (racemate), 3-ethyl-5-methyl-2-(2-aminoethoxy-methyl)-4-(2-chlorophenyl)-1,4-dihydro-6-methylpyridine-3,5-dicarboxylate] | 39 | 33 | – | –
2 | CCOC(=O)C1=C(COCCN)NC(C)=C(C(=O)OC)[C@H]1c1ccccc1Cl [Amlodipine R (+), R(+) isomer of 3-ethyl-5-methyl-2-(2-aminoethoxy-methyl)-4-(2-chlorophenyl)-1,4-dihydro-6-methylpyridine-3,5-dicarboxylate] | 36 | 39 | – | –
3 | CCOC(=O)C1=C(COCCN)NC(C)=C(C(=O)OC)[C@@H]1c1ccccc1Cl [Amlodipine S (-)] | 21 | 30 | – | –
4 | CCOC(=O)C1=C(C)NC(C)=C(C(=O)OC)C1c1cccc([N+](=O)[O-])c1 (stereo not shown) [Nitrendipine, nitrendipine] | 14 | 28 | – | –
5 | COc1ccc(CCN(C)CCCC(C#N)(c2ccc(OC)c(OC)c2)C(C)C)cc1OC (stereo not shown) [Verapamil, verapamil] | – | – | 13 | 22
